Reference: US5519007A, “Lysosphingolipid derivatives” (Fidia, S.p.A., priority 1988, dated 1996)

Columns and labels:
protein-kinase C (PKC) = test: Glutamate-induced PKC translocation, [3H]-P(BtO)2 bond in intact primary cerebellar granule cells; format: cell-based, Sprague-Dawley rats; conditions: for IC50: 2 h pre-incubation at 37° C., 1 μM glutamate, absence of Mg2+, read-out: PKC inhibition (ED50), glutamate-induced PKC translocation
Experimental: Translocation of PKC can be measured by assessment of the bond sites of 4-B-[3H]-phorbol 12,13-dibutyrate [3H]-P(Bt02) in intact cells.
(§5) Primary cultures were prepared with granule cells from 8-day-old Sprague-Dawley rats (Zivic Miller). […] The cultures were used for the experiments on the 8th and 9th days in vitro.
After 2 hours' incubation at 37° C. of the cells with or without the compounds (see above), the monolayers were washed once and the [^3 H]-P(BtO2) bond was assessed in the presence of 1 μM of glutamate and in the absence of Mg^2 +. […] Preliminary experiments have shown that balance is reached within 10 minutes, so the monolayers were incubated with [^3 H]-P(Bt0)2 for 15 minutes at 22° C. […] After incubation, the cells were washed three times with cold Locke's solution, and then suspended with 0.1M NaOH. Aliquots of the suspension were then used for protein determination (9) and liquid scintillation count. The nonspecific bond was determined in the presence of 2 μM phorbol 12-tetradecanoate 13-acetate (PTA).

[1] = system: primary granule cell cultures; test: Protection from glutamate-induced neuronal toxicity in primary granule cell cultures; format: cell-based, Sprague-Dawley rats
Experimental: as §5
Monolayers of intact granule cells were pre-incubated with various compounds at various concentrations for 2 hours at 37° C. […] Cell survival was assessed by histochemical techniques after 24 hours. In particular, cell viability was assessed after fluorescein staining, which gives green fluorescence to vital cells and red fluorescence to nonvital ones.

[2] = Neurotoxicity of the compounds themselves in culture in the absence of glutamate; format: cell-based, Sprague-Dawley rats; conditions: rat, cerebellar granule cells; 24 hours, absence of glutamate; read-out: Neurotoxicity in 24 hours (ED50)
Experimental: (§1) The following experiments show studies carried out with N-dichloroacetylsphingosine, in comparison to sphingosine. In particular, their effects on PKC translocation and glutamate-induced neuronal toxicity in primary granule cell cultures were observed. Possible cytotoxic effects of the products were assessed according to their neurotoxic effects in cerebellar cells in culture, as well as hemolysis.
(§2) Primary cultures were prepared with granule cells from 8-day-old Sprague-Dawley rats (Zivic Miller). These cultures have a granule cell content of >90%, 5% of GABAergic neurons [Gallo V. et al., Proc. Natl. Acad. Sci. USA 79, 7919-7923 (1982)] and <5% of glia cells [Vaccarino F. M. et al., J. Neurosci. 7, 65-76 (1987)]. The cultures were used for the experiments on the 8th and 9th days in vitro.
(§3) On the 8th and 9th days in vitro, sphingosines and N-dichloroacetylsphingosines at various concentrations (1-100μM) were added to the cultures. In particular, monolayers of granule cells were pre-incubated with these compounds in Locke's solution (1 ml) for 2 hrs at 37° C. The sphingosine was dissolved in ethanol, stored as an equimolar complex with bovine serum albumin (BSA) with no fatty acids, and diluted directly with the Locke's solution used to preincubate the cells. The N-dichloroacetylsphingosine was dissolved in DMSO and diluted directly in Locke's solution (as noted above). Aliquots of the dilutions were dried in a flow of N2, after which Locke's solution was added until the desired concentration was reached.
(§4) Possibile cytotoxicity of the compounds themselves was calculated by assessing the toxicity in the […] cultures in the absence of glutamate. The experiments and techniques used were those described above, with the difference that glutamate was omitted. The possible hemolytic effects of the compounds were also assessed. Samples of blood were taken from 4 volunteers. Each sample was subdivided into three test tubes as follows: […]

[3] = system: cerebellar cells in culture; test: as above; format: cell-based, Sprague-Dawley rats; conditions: compared with concentrations antagonizing PKC translocation and neuronal toxicity induced by glutamate
Experimental: as §1, §2, §3, §4

blood = test: Hemolysis in blood of volunteers (cyanomethahemoglobin method); format: cell-based, human (volunteers); conditions: 45 minutes at 37° C., various concentrations, vs plasma negative control; FIGURE
PKC [4] = conditions: literature (Hannun, Merril, Wilson); cited from earlier work
PKC [5] = conditions: granule cells; Vaccarino et al. 1987; cited from earlier work
granule cells = conditions: literature; cited from earlier work
[6] = system: glutamate high affinity recognition site; conditions: literature; cited from earlier work
[3H]-P(Bt02) bond = literature; cited from earlier work

| Molecule | Inhibition of glutamate-induced PKC translocation (in words) (protein-kinase C (PKC)) | IC50 (protein-kinase C (PKC)) [µM] | Reduction of cell toxicity induced by glutamate (in words) ([1]; 50 μM glutamate) | EC50 ([1]; Rattus norvegicus, 2 h pre-incubation at 37° C., 50 μM glutamate 15 min without Mg2+, survival after 24 hours, read-out: Protection from glutamate (ED50), neuronal toxicity induced by glutamate) [µM] | CC50 at 24 h [2] [µM] | Neurotoxicity of the compound itself (in words) [3] | Hemolysis (blood) | Effect on activity and translocation of PKC (PKC [4]) | Effect on glutamate-induced translocation and activation of PKC (PKC [5]) | Protection from glutamate-induced cell damage (granule cells) | Interference with the glutamate bond at its high affinity recognition site [6] | Interference with the [3H]-P(Bt02) bond ([3H]-P(Bt02) bond) |
| --- | --- | --- | --- | --- | --- | --- | --- | --- | --- | --- | --- | --- |
| CCCCCCCCCCCCC/C=C/[C@@H](O)[C@H](CO)NC(=O)C(Cl)Cl [N-dichloroacetylsphingosine, N-DICHLOROACETYL SPHINGOSINE] | inhibited glutamate-induced PKC translocation | 30 | significantly reducing cell toxicity induced by glutamate | 30 | > 100 | either no toxicity at all, or toxicity at significantly higher concentrations than those able to antagonize translocation induced by glutamate (column 1) as well as the neuronal toxicity induced by glutamate | does not cause hemolysis | – | – | – | – | – |
| CCCCCCCCCCCCC/C=C/[C@@H](O)[C@@H](N)CO [Sphingosine] | – | 20 | – | – | 10 to 20 | – | contrary to sphingosine, does not cause hemolysis | inhibit the activity and translocation of PKC | – | – | – | – |
| monosialosyl-N-tetra-glycosylceramide [GM1] | – | – | – | – | – | – | – | – | inhibits the translocation and activation of PKC induced by glutamate | offer protection from glutamate-induced cell damage | do not interfere with the glutamate bond up to its high affinity recognition site | do not interfere with the glutamate bond up to its high affinity recognition site or with the [3H]-P(Bt02) bond |
| trisialosyl-N-tetra-glycosylceramide [GT1b] | – | – | – | – | – | – | – | – | inhibits the translocation and activation of PKC induced by glutamate | offer protection from glutamate-induced cell damage | do not interfere with the glutamate bond up to its high affinity recognition site | do not interfere with the glutamate bond up to its high affinity recognition site or with the [3H]-P(Bt02) bond |
